The values below come from a melting point compilation (Tetko et al.; mined from patent text by program, amines drawn as free bases though some values may be those of a salt).

Bounds are passed on as bounds.

What is called melting point is the temperature, or range, at which the solid turns liquid. `O=C(Nc1ccccc1S(=O)(=O)N1CCCCC1)N[C@@H](Cc1ccc(Oc2nccc3cnccc23)cc1)C(=O)O` showed a melting point of 140 °C. The compound `N#Cc1cc(I)c(N)c(C(F)(F)F)c1` returned a melting point of 86 to 88 °C.

On to `Cn1c(=O)c2c(nc3n2CC(O)CN3Cc2ccccc2)n(C)c1=O` (stereo not drawn), for which the melting point fell in the range of 225 to 227 °C. As for `COc1ccc(Cn2nnc(C3=C(O)c4ccccc4S(=O)(=O)N3C)n2)cc1`, the figure is 178 to 181 °C; as for `O=C(NC(CS)Cc1ccccc1)N1CCCCCC1` (single isomer, unassigned; (+)), 102 °C. Consider `CC(C)n1nc(-c2sc(NC(=O)c3cccc(F)c3)nc2-c2ccccc2)ccc1=O`, for which the melting point is 183 to 184 °C. In turn, `COC(=O)CC(=O)NC(C)(C)CC(C)(C)C` showed a melting point of 74 to 75 °C. As for `COc1cccc(OC)c1CNC(=O)Cc1c(-c2ccccc2C)c2cc(Cl)ccc2oc1=O`, the melting point was in the range of 194 to 196 °C.

In turn, `CCCCOc1ccc(S(=O)(=O)C2(C(=O)O)CCN(Cc3ccc(F)cc3)CC2)cc1` came in with a melting point of 112 °C. In the case of `Cc1c(C(=O)Nc2nncs2)nnn1Cc1ccc(Cl)c(Cl)c1`, the melting point was 216 °C. Compound `COc1ccc(OC)c2c1C[C@](O)(CC#N)CC2=O` gave a melting point of 160 to 162 °C. The compound `CC(C)(C)C(F)(F)c1ccc(C[C@@H](C(=O)O)[C@@H](O)c2cccc(Cl)c2)cc1` (racemic) showed a melting point of 141 to 142 °C. In the case of `COC(=O)C1=C(C)NN=C(c2cccs2)C1c1cccc(Cl)c1` (stereo not drawn), the melting point was found to be 191 °C. With `COc1cc(OC)nc(Oc2ccc(N)nc2C(=O)ON=C(C)C)n1` the figure was 210 to 214 °C. Compound `Cc1c(F)c(N2CCCC(n3ccnn3)C2)c(F)c2c1c(=O)c(C(=O)O)cn2C1CC1` (stereo not drawn) yielded a melting point of 227 to 228 °C.

In turn, `CC(C(=O)N1CCCC1C(=O)O)N(C(=O)C(NC(=O)c1ccccc1)SC(=O)c1ccccc1)C(C)(C)C` (stereo not drawn) showed a melting point of 97 to 100 °C. With `CNc1cccc(C(=O)O)c1C` the figure was 165 to 167 °C. Compound `Cc1ncc([N+](=O)[O-])n1CCN=[N+]=[N-]` returned a melting point of 51 to 51.5 °C. Consider `COc1ccc(Cn2cnc3c(-c4ccco4)nc([N+](=O)[O-])nc32)cc1`, for which the melting point was 182 to 183 °C.

Take `O=P(c1ccccc1)(c1ccccc1)c1ccccc1C1OCCO1`: the melting point fell in the range of 161 to 162 °C. With `OCC1OC(n2cnc3c(SCc4ccc5nc[nH]c5c4)ncnc32)C(O)C1O` (stereo not drawn) the figure was 196 to 198 °C; with `NC(=O)c1cccc2c1CCCc1ccccc1-2`, > 250 °C; with `O=C(Cc1ccccc1)Nc1ccc(-c2ccc(C(=O)O)c(=O)[nH]2)cc1`, > 280 °C.

Compound `CCOC(=O)C(=CNc1ccc(F)c(SCC)n1)C(=O)OCC` registered a melting point of 77.5 to 78.5 °C. As to `CCOCc1nc2c(N)nc3c(c2n1CC(C)(C)OCCS(C)(=O)=O)CCCC3`, the melting point lay in the range of 150 to 153 °C. With `CCOC(=O)c1cc(C(=O)OC)c(=O)oc1C` the figure was 94 to 96 °C; with `CC[C@H](Cc1sccc1Cl)Nc1ccnc(O)c1[N+](=O)[O-]`, 150 to 152 °C. In turn, `C=C(C(=O)c1ccc(C(=O)O)cc1)c1ccc(OC)c(-c2cccs2)c1` returned a melting point of 163 to 164 °C. In turn, `Cc1cc(C)cc(S(=O)(=O)c2c(C(C)C)nc(C)n2C)c1` displayed a melting point of 126 to 128 °C. Compound `O=C(Nc1ccc2ccccc2c1C(=O)O)OCc1cc2cc(-c3ccccc3)ccc2o1` gave a melting point of 174 to 177 °C. `CCC(O)(CC)CC1NC(=O)c2ccccc21` (stereo not drawn): the melting point was in the range of 130 to 132 °C. `NCC(=O)N(Nc1nncc(-c2ccccc2)n1)C(=O)OCc1ccccc1` yielded a melting point of 166 to 167 °C. With `CC(C)(CCl)C(=O)COc1ccc(-c2ccc(Cl)cc2)cc1` the figure was 67 to 68 °C; with `COc1cccc(CCc2c(C(=O)O)ccc(OC)c2OC)c1`, 156 to 158 °C; with `Cc1cccc(-c2nc3ccccn3c2-c2ccnc(-c3ccc(OC(F)(F)F)cc3)c2)n1`, 120 °C. Regarding `CC(C)(C)C(=O)OCOP(=O)(CCCCc1ccccc1)CC(=O)O` (stereo not drawn), the melting point is 48 to 50 °C.

Compound `Cc1c(Br)cc(S(C)(=O)=O)c(C)c1Cl` displayed a melting point of 124 to 126 °C. `CC(C)(CC(C)(c1ccc(O)cc1)c1ccc(O)cc1)c1ccc(O)cc1` displayed a melting point of 150 to 151 °C. As to `NS(=O)(=O)c1cc(C(=O)O)cc(N2CCCC2)c1Oc1ccccc1`, the melting point lay within 214 to 217 °C. For the compound `CC(=O)Nc1ccc(C(=O)Nc2ccc(O)cc2)cc1`, the melting point lay in the range of 275 to 277 °C. With `Cn1nc2c(N)nc3ccccc3c2c1CC1(F)CCOCC1`, the melting point lay within 252 to 254 °C.

Compound `O=S(=O)(C(=CNc1nccs1)S(=O)(=O)c1ccccc1)c1ccccc1` returned a melting point of 189 to 191 °C. As to `NC(=O)c1cnn2c(-c3cccc(C(F)(F)F)c3)ccnc12`, the melting point lay in the range of 256 to 258 °C. As for `Cc1oc(-c2ccccc2)nc1COc1ccc(C=CC=O)cc1F`, the figure is 133 to 134 °C; as for `CCOC(=O)CC(=O)c1cc(O)c(O)c([N+](=O)[O-])c1`, 136 to 137 °C. As for `OCC(O)COc1ccccc1OCc1ccccc1` (stereo not drawn), the melting point lay within 81 to 82.5 °C. For the compound `CS(=O)(=O)c1cccc(NC(=O)c2cnn3c(C(F)(F)F)cc(-c4ccc(Cl)c(Cl)c4)nc23)c1`, the melting point is 263 °C. Turning to `Cc1cc(C)c2c(=O)c(N)coc2c1`, the melting point is 120 to 121 °C.

In turn, `O=C1CC2C1CC(O)C2Cl` (stereo not drawn) displayed a melting point of 69 to 71 °C. Compound `Cc1cc(C)c(Cc2cnc(NCCCCc3ncc(Br)cc3C)[nH]c2=O)cn1` yielded a melting point of 110 to 112 °C. In turn, `Nc1nc(Cl)c(C(F)(F)F)cc1Cl` yielded a melting point of 110 to 112 °C. Regarding `COc1ccc(CNC(Nc2ccccc2)=C(C#N)C(=O)OC(C)(C)C)cc1`, the melting point is 158 to 159 °C. `CN(C)C(=O)Nc1coc2ccccc2c1=S` had a melting point of 108 °C. Consider `CC(C)N(C[C@H](O)[C@H](Cc1ccccc1)NC(=O)OCc1ccccc1)NC(=O)C(C)(C)C`, for which the melting point lay in the range of 132 to 134 °C. In turn, `O=C(Oc1ccc2c(c1Cl)Sc1ccccc1N2)c1ccccc1` came in with a melting point of 203 °C.

For the compound `Cc1ccccc1NC(=O)c1ccc(C(=O)N2Cc3ccccc3Cc3ccccc32)cc1`, the melting point was in the range of 214 to 216 °C. In turn, `O=C(CNC(=O)c1cc([N+](=O)[O-])c(F)cc1Cl)OCc1ccccc1` came in with a melting point of 108 to 110 °C. Regarding `FC(F)(F)Oc1ccc(-c2cc(-n3ccc(C(F)(F)F)n3)c3ccccc3n2)cc1`, the melting point is 108 to 110 °C.

Turning to `OCC1OC(n2cnc3c(NCC4(c5cccs5)CCC4)ncnc32)C(O)C1O` (stereo not drawn), the melting point fell in the range of 84 to 92 °C. Take `CC=CC(=O)N(CCCC(=O)O)C(C)(C)CC(C)(C)C`: the melting point lay within 92 to 93 °C. With `COc1ccc2c(c1)C13CCN(C)C(C2)C1OCOC3` (stereo not drawn) the figure was 134 to 135 °C; with `CN(C(=O)CN1C(=O)C(NC(=O)Nc2cccc(C#N)c2)N=C(CN2CCOCC2)c2ccccc21)c1ccccc1` (stereo not drawn), 165 to 167 °C; with `OC1CC(O)C2CC1NN2` (stereo not drawn), 203 to 205 °C. `COC(=O)C(C)(C)CCCOc1cc(C)c(NC(=O)C(C)(C)CCCOc2cc(C)ccc2C)cc1C` showed a melting point of 60 to 62 °C.

Compound `Nc1cccc2cc(C(=O)O)ccc12` returned a melting point of 231 to 234 °C. With `Cc1c(NC(=O)C(CSC(=O)N(C)C)Cc2ccccc2)cccc1C(=O)O` (stereo not drawn), the melting point lay in the range of 84 to 87 °C.

`CCOP(=S)(NCc1cccc(-c2nc(=O)c3ccccc3s2)n1)OCC` came in with a melting point of 132 to 133 °C. On to `COc1ccc(-c2cc(C)c(N)c(C=O)c2)cn1`, for which the melting point fell in the range of 81 to 84 °C.

As to `O=c1c2cccnc2c(-c2cccc([N+](=O)[O-])c2)nn1Cc1ccncc1`, the melting point lay in the range of 167 to 168 °C. Regarding `N#Cc1cc(F)c(NN=CC(=O)C(F)(F)F)nc1Cl`, the melting point lay in the range of 174 to 176 °C.

`COc1ccc2nc3ccc(OC)cc3c(Nc3cccc(COC(=O)NC(C)C)c3)c2c1`: the melting point lay in the range of 148 to 149 °C. Turning to `OC(CN1CCCCC1)c1cc(C(F)(F)F)nc2c(C(F)(F)F)cccc12` (stereo not drawn), the melting point came to 130 °C. `CC(C)(C)c1ccc(C(=O)CCCN2CCC(C3(O)c4ccccc4CCc4ccccc43)CC2)cc1` registered a melting point of 132 to 134 °C.

Consider `CCOC(=O)C(Nc1ccc(C(=O)OC)cc1)C(=O)OCC`, for which the melting point was in the range of 66 to 69 °C. Regarding `O=C1c2cccc([N+](=O)[O-])c2C(=O)c2cccc(O)c21`, the melting point was in the range of 299 to 302 °C. On to `O=C(O)c1ccc(F)c(Nc2ncccc2-c2ccncn2)c1`, for which the melting point is 95 °C. `CCOC(CN1C(=O)C2=C(c3ccc(Br)cc3)N(CC(OCC)OCC)C(=O)C2=C1c1ccc(Br)cc1)OCC` registered a melting point of 198 to 201 °C.

Regarding `COc1ccc2c(c1)C(=O)c1c-2n(CCCCl)c(=O)c2ccccc12`, the melting point is 195 to 198 °C. As for `O=c1[nH]c(Nc2cccc(C(F)(F)F)c2)nc2c1ncn2CCO`, the figure is 347 to 349 °C. `C[C@H](CN1CC(F)C1)NC(=O)c1c[nH]c2ncc(-c3nn(C)c4cc(Cl)ccc34)nc12`: the melting point was in the range of 182 to 185 °C. `CN(C)CCn1c(=O)c2c3oc4ccccc4oc3c3[nH]c4ccc(O)cc4c3c2c1=O`: the melting point is > 360 °C. With `CCOC(=O)c1cc(O)c2c(OC(C)C)ccc(Br)c2c1` the figure was 106 °C; with `OCCCCCCOc1ccc(-c2ccccc2)cc1`, 92 to 94 °C; with `CCC(O)(c1ccc(OCCCN2CCCCC2)cc1)c1cccc(C(F)(F)F)c1` (stereo not drawn), 124 to 125 °C.

As to `COC(=O)[C@@H]1C[C@H](N=[N+]=[N-])C(=O)[C@H]2[C@@]1(C)CC[C@H]1C(=O)O[C@H](c3ccoc3)C[C@]21C`, the melting point fell in the range of 200 to 203 °C. With `Cc1ccc(NC(=O)c2cccc(C(F)(F)F)c2)cc1-c1ccc2cnncc2c1` the figure was 97 to 100 °C; with `O=c1[nH]c2ncc(-c3ccc(O)cc3)nc2n1C1CCCC1`, 299 to 301 °C. Compound `c1ccc(C(c2ccccc2)N2CCN(CCCSc3ccc4nncn4n3)CC2)cc1` displayed a melting point of 79 to 80 °C.
